# Test results reported in EP4786487A1, “PEPTIDE” (Peptidream Inc, priority 2023, dated 2025).
# Starred links: 1 amine or outer side, 2 acyl side, 3 side chain; linkers in the order of their positions; H or OH if unused. Positions of bridges follow the written chain, without caps; N, C: chain ends. Non-standard residues stand in square brackets, D forms with d. Residues, ends and D or L forms follow the SMILES beside them. *: point of attachment. Phe(3-OCH2COOH) = N[C@@H](Cc1cccc(OCC(=O)O)c1)C(=O)O; X15 = O=C([C@H](Cc1ccc(-c2ccccn2)cc1)N[*:1])[*:2]; Phe(4-CONH2) = NC(=O)c1ccc(C[C@H](N)C(=O)O)cc1; Phe(4-COOH) = N[C@@H](Cc1ccc(C(=O)O)cc1)C(=O)O; X14 = CCc1cccc(C[C@@H](C(=O)[*:2])N(C)[*:1])c1; Trp(7-aza) = N[C@@H](Cc1c[nH]c2ncccc12)C(=O)O; Tyr(Ph) = N[C@@H](Cc1ccc(Oc2ccccc2)cc1)C(=O)O; NMePhe(3-Me) = CN[C@@H](Cc1cccc(C)c1)C(=O)O; Bip = N[C@@H](Cc1ccc(-c2ccccc2)cc1)C(=O)O; Phe(3-OMe) = COc1cccc(C[C@H](N)C(=O)O)c1; Gly(N(CH2)3COOH) = O=C(O)CCCNCC(=O)O; NMeY = CN[C@@H](Cc1ccc(O)cc1)C(=O)O; NMeF = CN[C@@H](Cc1ccccc1)C(=O)O; 3Pal = N[C@@H](Cc1cccnc1)C(=O)O; 4Pal = N[C@@H](Cc1ccncc1)C(=O)O; Ahp(2) = CCCCC[C@H](N)C(=O)O; Carboxymethyl = O=C(O)C*; NMeA = CN[C@@H](C)C(=O)O; Sar = CNCC(=O)O
# What was measured:
# GDF-11 = target: T1, GDF-11 (Homo sapiens, UniProt O95390); test: HepG2 reporter gene assay, Evaluation Procedure (2): 2-concentrations assay, GDF-11 inhibition; format: cell-based; details: GDF-11 10 ng/mL; for inhibition at 0.03 µM: HepG2, peptide 30nM, read-out: GDF11 Inhibition 30nM; for inhibition at 0.1 µM: HepG2, peptide 100nM, read-out: GDF11 Inhibition 100nM
# T1 construct: purchased R&D systems 1958-GD-G8/CF
# T1 sequence (O95390 299-407): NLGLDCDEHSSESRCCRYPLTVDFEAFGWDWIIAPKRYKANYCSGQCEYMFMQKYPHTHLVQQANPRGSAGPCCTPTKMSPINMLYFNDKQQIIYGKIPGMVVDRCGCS
# In short: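 HepG2 cells carrying the transfected pGL3(CAGA)12-luc reporter, a pGL3 vector with luciferase placed downstream of 12 CAGA repeats, were stimulated with GDF-11 at a final 10 ng/mL together with test peptide. Blank wells received no GDF-11 and no peptide. Plates were incubated 20 to 24 hours at 37°C with 5% CO2. Luminescence from One-Glo substrate was read to calculate percent inhibition.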
# Myostatin = target: T2, Myostatin (Homo sapiens, UniProt O14793); test: HepG2 reporter gene assay, Evaluation Procedure (2): 2-concentrations assay, myostatin inhibition; format: cell-based; details: Myostatin 10 ng/mL, HepG2; for inhibition at 0.03 µM: peptide 30nM, read-out: Myostatin Inhibition 30nM; for inhibition at 0.1 µM: peptide 100nM, read-out: Myostatin Inhibition 100nM
# T2 construct: active myostatin (also called mature myostatin) is a homodimer consisting of two C-terminal growth factor domains; purchased R&D systems 788-G8/CF
# T2 sequence (O14793 267-375): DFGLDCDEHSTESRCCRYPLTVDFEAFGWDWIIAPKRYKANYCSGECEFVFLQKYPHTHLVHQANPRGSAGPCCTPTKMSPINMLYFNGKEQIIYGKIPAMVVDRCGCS
# In short: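 HepG2 cells (HB-8065, ATCC) carrying the transfected pGL3(CAGA)12-luc reporter plasmid were treated with myostatin (788-G8/CF, R&D systems) at a final concentration of 10 ng/mL plus peptide and incubated at 37°C, 5% CO2 for 20 to 24 hours. Luminescence was read after adding PBS mixed 1:1 with One-Glo substrate, and inhibition rate was calculated.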
Structure (SMILES),inhibition at 0.03 µM (GDF-11),inhibition at 0.1 µM (GDF-11),inhibition at 0.03 µM (Myostatin),inhibition at 0.1 µM (Myostatin)
CC[C@H](C)[C@@H]1NC(=O)[C@H](Cc2ccccc2)N(C)C(=O)[C@H](Cc2ccc(O)cc2)NC(=O)[C@H](Cc2c[nH]c3ncccc23)NC(=O)[C@H](CCC(=O)O)NC(=O)[C@H](C)NC(=O)CSC[C@H](C(=O)N[C@H](CO)C(=O)N[C@H](CO)C(=O)N[C@H](CO)C(=O)N[C@H](CCCCN)C(=O)O)NC(=O)[C@H](Cc2ccccc2)N(C)C(=O)[C@H](C)N(C)C(=O)[C@H](CC(C)C)NC(=O)[C@H](Cc2ccccc2)N(C)C(=O)[C@H](CCCNC(=N)N)NC(=O)[C@H](Cc2ccc(C(=O)O)cc2)NC(=O)[C@H](Cc2ccccc2)NC(=O)CN(C)C1=O [Myostatin_99_v39] ({CH2CO}-AE[Trp(7-aza)]Y[NMeF]I[Sar]F[Phe(4-COOH)]R[NMeF]L[NMeA][NMeF][dC][dS][dS][dS][dK]-OH; thioether N-15),0%,11%,39%,79%
CC[C@H](C)[C@@H]1NC(=O)[C@H](Cc2ccccc2)N(C)C(=O)[C@H](Cc2ccc(O)cc2)NC(=O)[C@H](Cc2c[nH]c3ncccc23)NC(=O)[C@H](CCC(=O)O)NC(=O)[C@H](C)NC(=O)CSC[C@H](C(=O)N[C@H](CO)C(=O)N[C@H](CO)C(=O)N[C@H](CO)C(=O)N[C@H](CCCCN)C(=O)O)NC(=O)[C@H](Cc2ccccc2)N(C)C(=O)[C@H](C)N(C)C(=O)[C@H](CC(C)C)NC(=O)[C@H](Cc2ccccc2)N(C)C(=O)[C@H](CCCNC(=N)N)NC(=O)[C@H](Cc2ccc(C(=O)O)cc2)NC(=O)[C@H](Cc2ccncc2)NC(=O)CN(C)C1=O [Myostatin_99_v40] ({CH2CO}-AE[Trp(7-aza)]Y[NMeF]I[Sar][4Pal][Phe(4-COOH)]R[NMeF]L[NMeA][NMeF][dC][dS][dS][dS][dK]-OH; thioether N-15),0%,0%,39%,67%
CC[C@H](C)[C@@H]1NC(=O)[C@H](Cc2ccccc2)N(C)C(=O)[C@H](Cc2ccc(Oc3ccccc3)cc2)NC(=O)[C@H](Cc2ccc(-c3ccccn3)cc2)NC(=O)[C@H](C)NC(=O)CN(CCCC(=O)O)C(=O)CSC[C@H](C(=O)O)NC(=O)[C@H](Cc2ccccc2)N(C)C(=O)[C@H](C)N(C)C(=O)[C@H](CC(C)C)NC(=O)[C@H](Cc2ccccc2)N(C)C(=O)[C@H](CCCNC(=N)N)NC(=O)[C@H](Cc2ccc(OCC(=O)O)cc2)NC(=O)[C@H](Cc2ccccc2)NC(=O)CN(C)C1=O [Myostatin_99_v60] ({CH2CO}-[Gly(N(CH2)3COOH)]A[X15][Tyr(Ph)][NMeF]I[Sar]FY(Carboxymethyl)R[NMeF]L[NMeA][NMeF][dC]-OH; thioether N-15),7%,5%,25%,51%
CC[C@H](C)[C@@H]1NC(=O)[C@H](Cc2ccccc2)N(C)C(=O)[C@H](Cc2ccc(O)cc2)NC(=O)[C@H](Cc2ccc(-c3ccccc3)cc2)NC(=O)[C@H](C)NC(=O)CN(CCCC(=O)O)C(=O)CSC[C@H](C(=O)O)NC(=O)[C@H](Cc2ccccc2)N(C)C(=O)[C@H](C)N(C)C(=O)[C@H](CC(C)C)NC(=O)[C@H](Cc2ccccc2)N(C)C(=O)[C@H](CCCNC(=N)N)NC(=O)[C@H](Cc2ccc(C(N)=O)cc2)NC(=O)[C@H](Cc2ccc(C(=O)O)cc2)NC(=O)[C@H](C)N(C)C1=O [Myostatin_99_v102] ({CH2CO}-[Gly(N(CH2)3COOH)]A[Bip]Y[NMeF]I[NMeA][Phe(4-COOH)][Phe(4-CONH2)]R[NMeF]L[NMeA][NMeF][dC]-OH; thioether N-15),0%,0%,60%,81%
CCc1cccc(C[C@H]2C(=O)N[C@@H](C(=O)O)CSCC(=O)N(CCCC(=O)O)CC(=O)N[C@@H](C)C(=O)N[C@@H](Cc3ccc(-c4ccccc4)cc3)C(=O)N[C@@H](Cc3ccc(O)cc3)C(=O)N(C)[C@@H](Cc3ccc(O)cc3)C(=O)N[C@@H]([C@@H](C)CC)C(=O)N(C)CC(=O)N[C@@H](Cc3cccc(OCC(=O)O)c3)C(=O)N[C@@H](Cc3ccc(C(=O)O)cc3)C(=O)N[C@@H](CCCNC(=N)N)C(=O)N(C)[C@@H](Cc3ccccc3)C(=O)N[C@@H](CC(C)C)C(=O)N(C)[C@@H](C)C(=O)N2C)c1 [Myostatin_99_v113] ({CH2CO}-[Gly(N(CH2)3COOH)]A[Bip]Y[NMeY]I[Sar][Phe(3-OCH2COOH)][Phe(4-COOH)]R[NMeF]L[NMeA][X14][dC]-OH; thioether N-15),0%,0%,35%,70%
CC[C@H](C)[C@@H]1NC(=O)[C@H](Cc2cccc(C)c2)N(C)C(=O)[C@H](Cc2ccc(O)cc2)NC(=O)[C@H](Cc2ccc(-c3ccccc3)cc2)NC(=O)[C@H](C)NC(=O)CN(CCCC(=O)O)C(=O)CSC[C@H](C(=O)O)NC(=O)[C@H](Cc2ccccc2)N(C)C(=O)[C@H](C)N(C)C(=O)[C@H](CC(C)C)NC(=O)[C@H](Cc2ccccc2)N(C)C(=O)[C@H](CCCNC(=N)N)NC(=O)[C@H](Cc2ccc(C(=O)O)cc2)NC(=O)[C@H](Cc2cccc(OCC(=O)O)c2)NC(=O)CN(C)C1=O [Myostatin_99_v119] ({CH2CO}-[Gly(N(CH2)3COOH)]A[Bip]Y[NMePhe(3-Me)]I[Sar][Phe(3-OCH2COOH)][Phe(4-COOH)]R[NMeF]L[NMeA][NMeF][dC]-OH; thioether N-15),0%,0%,46%,70%
CC[C@H](C)[C@@H]1NC(=O)[C@H](Cc2ccccc2)N(C)C(=O)[C@H](Cc2ccc(O)cc2)NC(=O)[C@H](Cc2c[nH]c3ccccc23)NC(=O)[C@H](C)NC(=O)CN(CCCC(=O)O)C(=O)CSC[C@H](C(=O)O)NC(=O)[C@H](Cc2ccccc2)N(C)C(=O)[C@H](C)N(C)C(=O)[C@H](CC(C)C)NC(=O)[C@H](Cc2ccccc2)N(C)C(=O)[C@H](CCCNC(=N)N)NC(=O)[C@H](Cc2ccc(OCC(=O)O)cc2)NC(=O)[C@H](Cc2cccc(OC)c2)NC(=O)[C@H](C)N(C)C1=O [Myostatin_99_v126] ({CH2CO}-[Gly(N(CH2)3COOH)]AWY[NMeF]I[NMeA][Phe(3-OMe)]Y(Carboxymethyl)R[NMeF]L[NMeA][NMeF][dC]-OH; thioether N-15),0%,0%,28%,68%
CC[C@H](C)[C@@H]1NC(=O)[C@H](Cc2ccccc2)N(C)C(=O)[C@H](Cc2ccc(O)cc2)NC(=O)[C@H](Cc2c[nH]c3ncccc23)NC(=O)[C@H](C)NC(=O)CN(CCCC(=O)O)C(=O)CSC[C@H](C(=O)O)NC(=O)[C@H](Cc2ccccc2)N(C)C(=O)[C@H](C)N(C)C(=O)[C@H](CC(C)C)NC(=O)[C@H](Cc2ccccc2)N(C)C(=O)[C@H](CCCNC(=N)N)NC(=O)[C@H](Cc2ccc(OCC(=O)O)cc2)NC(=O)[C@H](Cc2cccc(OC)c2)NC(=O)[C@H](C)N(C)C1=O [Myostatin_99_v127] ({CH2CO}-[Gly(N(CH2)3COOH)]A[Trp(7-aza)]Y[NMeF]I[NMeA][Phe(3-OMe)]Y(Carboxymethyl)R[NMeF]L[NMeA][NMeF][dC]-OH; thioether N-15),0%,0%,31%,57%
CCCCC[C@@H]1NC(=O)[C@H](Cc2ccccc2)N(C)C(=O)[C@H](CCCNC(=N)N)NC(=O)[C@H](Cc2cccnc2)NC(=O)[C@H](Cc2cccc(OCC(=O)O)c2)NC(=O)CN(C)C(=O)[C@H]([C@@H](C)CC)NC(=O)[C@H](Cc2ccccc2)N(C)C(=O)[C@H](Cc2ccc(O)cc2)NC(=O)[C@H](Cc2c[nH]c3ccccc23)NC(=O)[C@H](C)NC(=O)[C@H](C)NC(=O)CSC[C@H](C(=O)O)NC(=O)[C@H](Cc2ccccc2)N(C)C(=O)[C@H](C)N(C)C1=O [Myostatin_99_v205] ({CH2CO}-AAWY[NMeF]I[Sar][Phe(3-OCH2COOH)][3Pal]R[NMeF][Ahp(2)][NMeA][NMeF][dC]-OH; thioether N-15),6%,1%,37%,69%
CCCCC[C@@H]1NC(=O)[C@H](Cc2ccccc2)N(C)C(=O)[C@H](CCCNC(=N)N)NC(=O)[C@H](Cc2ccc(C(=O)O)cc2)NC(=O)[C@H](Cc2cccc(OCC(=O)O)c2)NC(=O)CN(C)C(=O)[C@H]([C@@H](C)CC)NC(=O)[C@H](Cc2ccccc2)N(C)C(=O)[C@H](Cc2ccc(O)cc2)NC(=O)[C@H](Cc2c[nH]c3ccccc23)NC(=O)[C@H](C)NC(=O)[C@H](C)NC(=O)CSC[C@H](C(N)=O)NC(=O)[C@H](Cc2ccccc2)N(C)C(=O)[C@H](C)N(C)C1=O [Myostatin_99_v206] ({CH2CO}-AAWY[NMeF]I[Sar][Phe(3-OCH2COOH)][Phe(4-COOH)]R[NMeF][Ahp(2)][NMeA][NMeF][dC]-NH2; thioether N-15),0%,0%,88%,97%
